The structures appear in SMILES notation.

Drawing on patent US10653146B2, “Microbiocidal oxadiazole derivatives” (SYNGENTA PARTICIPATIONS AG, priority 2016, dated 2020), this text covers inhibition, melting point and pest or weed control for nine compounds.

Data set [1] concerns Glomerella lagenarium (Colletotrichum lagenarium). As to the kind of experiment: Fungicidal activity against Glomerella lagenarium (Colletotrichum lagenarium) liquid culture / cucumber / preventative (anthracnose). In kind it is cell-based. To be noted: Colletotrichum orbiculare; 20 ppm in the applied formulation; liquid culture in PDB, 24° C.; 3 to 4 days after application; read-out: disease control compared to untreated control (inhibition of growth measured photometrically). Here is the method: Mycelia fragments or conidia suspensions of a fungus prepared either freshly from liquid cultures of the fungus or from cryogenic storage, are directly mixed into nutrient broth. DMSO solutions of the test compound (max. 10 mg/ml) are diluted with 0.025% Tween20 by a factor of 50 and 10 μl of this solution is pipetted into a microtiter plate (96-well format). The nutrient broth containing the fungal spores/mycelia fragments is then added to give an end concentration of the tested compound. The test plates are incubated in the dark at 24° C. and 96% relative humidity. The inhibition of fungal growth is determined photometrically after 2 to 7 days, depending on the pathosystem, and percent antifungal activity relative to the untreated check is calculated.
Conidia of the fungus from cryogenic storage are directly mixed into nutrient broth (PDB—potato dextrose broth). After placing a (DMSO) solution of test compound into a microtiter plate (96-well format), the nutrient broth containing the fungal spores is added. The test plates are incubated at 24° C. and the inhibition of growth is measured photometrically 3 to 4 days after application.
The following compounds at 20 ppm in the applied formulation give at least 80% disease control in this test when compared to untreated control under the same conditions, which show extensive disease development.

Data set [2] deals with Puccinia recondita f. Sp. Tritici. As to the kind of experiment: Fungicidal activity against Puccinia recondita f. sp. tritici / wheat / leaf disc preventative (brown rust). In kind it is in vivo. Particulars: foliar, 200 ppm in the applied formulation, wheat leaf segments cv. Kanzler, inoculated 1 day after application, assessed 7 to 9 days after application, read-out: disease control compared to untreated control leaf disks. The protocol:
Leaf disks or leaf segments of various plant species are cut from plants grown in a greenhouse. The cut leaf disks or segments are placed in multiwell plates (24-well format) onto water agar. The leaf disks are sprayed with a test solution before (preventative) or after (curative) inoculation. Compounds to be tested are prepared as DMSO solutions (max. 10 mg/ml) which are diluted to the appropriate concentration with 0.025% Tween20 just before spraying. The inoculated leaf disks or segments are incubated under defined conditions (temperature, relative humidity, light, etc.) according to the respective test system. A single evaluation of disease level is carried out 3 to 14 days after inoculation, depending on the pathosystem. Percent disease control relative to the untreated check leaf disks or segments is then calculated. Wheat leaf segments cv. Kanzler were placed on agar in multiwell plates (24-well format) and sprayed with the formulated test compound diluted in water. The leaf disks were inoculated with a spore suspension of the fungus 1 day after application. The inoculated leaf segments were incubated at 19° C. and 75% relative humidity (rh) under a light regime of 12 hours light/12 hours darkness in a climate cabinet and the activity of a compound was assessed as percent disease control compared to untreated when an appropriate level of disease damage appears in untreated check leaf segments (7 to 9 days after application). The following compounds at 200 ppm in the applied formulation give at least 80% disease control in this test when compared to untreated control leaf disks under the same conditions, which show extensive disease development.

Data set [3] deals with Puccinia recondite f. Sp. Tritici. As to the kind of experiment: Fungicidal activity against Puccinia recondite f. sp. tritici / wheat / leaf disc curative (brown rust). Particulars: foliar, 200 ppm in the applied formulation, wheat leaf segments cv. Kanzler, applied 1 day after inoculation, assessed 6 to 8 days after application, read-out: disease control compared to untreated control leaf disks. In kind it is in vivo. Here is the method: (§1) Leaf disks or leaf segments of various plant species are cut from plants grown in a greenhouse. The cut leaf disks or segments are placed in multiwell plates (24-well format) onto water agar. The leaf disks are sprayed with a test solution before (preventative) or after (curative) inoculation. Compounds to be tested are prepared as DMSO solutions (max. 10 mg/ml) which are diluted to the appropriate concentration with 0.025% Tween20 just before spraying. The inoculated leaf disks or segments are incubated under defined conditions (temperature, relative humidity, light, etc.) according to the respective test system. A single evaluation of disease level is carried out 3 to 14 days after inoculation, depending on the pathosystem. Percent disease control relative to the untreated check leaf disks or segments is then calculated.
Wheat leaf segments cv. Kanzler are placed on agar in multiwell plates (24-well format). The leaf segments are then inoculated with a spore suspension of the fungus. Plates were stored in darkness at 19° C. and 75% relative humidity. The formulated test compound diluted in water was applied 1 day after inoculation. The leaf segments were incubated at 19° C. and 75% relative humidity under a light regime of 12 hours light/12 hours darkness in a climate cabinet and the activity of a compound was assessed as percent disease control compared to untreated when an appropriate level of disease damage appears in untreated check leaf segments (6 to 8 days after application).
(§2) The following compounds at 200 ppm in the applied formulation give at least 80% disease control in this test when compared to untreated control leaf disks under the same conditions, which show extensive disease development.

For a further data set, the system named is Phakopsora pachyrhizi. The data set is described as follows: Fungicidal activity against Phakopsora pachyrhizi / soybean / leaf disc preventative (Asian soybean rust). To be noted: foliar, 200 ppm in the applied formulation, soybean leaf disks, inoculated one day after application, assessed 12 to 14 days after application, read-out: disease control compared to untreated control leaf disks. In kind it is in vivo. The protocol:
as §1
Soybean leaf disks are placed on water agar in multiwell plates (24-well format) and sprayed with the formulated test compound diluted in water. One day after application leaf discs are inoculated by spraying a spore suspension on the lower leaf surface. After an incubation period in a climate cabinet of 24-36 hours in darkness at 20° C. and 75% rh leaf disc are kept at 20° C. with 12 h light/day and 75% rh. The activity of a compound is assessed as percent disease control compared to untreated when an appropriate level of disease damage appears in untreated check leaf disks (12 to 14 days after application).
as §2

What is called inhibition is the drop in the measured response relative to a control, in per cent. In general, melting point refers to the temperature, or range, at which the solid turns liquid. `CCN1OCC(NC(=O)C(=O)c2ccc(-c3noc(C(F)(F)F)n3)cc2)C1=O` (stereo not drawn) [Compound 1.21, N-(2-ethyl-3-oxo-isoxazolidin-4-yl)-2-oxo-2-[4-[5-(trifluoromethyl)-1,2,4-oxadiazol-3-yl]phenyl]acetamide] had a melting point of 162 to 165 °C. In addition, the inhibition at 20 ppm in data set [1] is at least 80%. In addition, in data set [2], the pest or weed control at 200 ppm is at least 80%. Besides, the pest or weed control at 200 ppm in data set [3] is at least 80%. The pest or weed control at 200 ppm in the data set with Phakopsora pachyrhizi was at least 80%.
Compound `COc1cccc(NC(=O)C(=O)c2ccc(-c3noc(C(F)(F)F)n3)cc2)n1` [Compound 1.24, N-(6-methoxy-2-pyridyl)-2-oxo-2-[4-[5-(trifluoromethyl)-1,2,4-oxadiazol-3-yl]phenyl]acetamide] came in with a melting point of 118 to 120 °C. In addition, in data set [1], the inhibition at 20 ppm was at least 80%. The pest or weed control at 200 ppm in data set [2] is at least 80%. The pest or weed control at 200 ppm in the data set with Phakopsora pachyrhizi was at least 80%.
Take `C=CCNC(=O)C(=O)c1ccc(-c2noc(C(F)(F)F)n2)cc1` [Compound 1.25, N-allyl-2-oxo-2-[4-[5-(trifluoromethyl)-1,2,4-oxadiazol-3-yl]phenyl]acetamide]: the melting point was in the range of 71 to 74 °C. Moreover, in data set [1], the inhibition at 20 ppm was at least 80%. The pest or weed control at 200 ppm in data set [2] is at least 80%. Besides, the pest or weed control at 200 ppm in data set [3] was at least 80%. Moreover, the pest or weed control at 200 ppm with Phakopsora pachyrhizi is at least 80%.
Compound `O=C(NCCF)C(=O)c1ccc(-c2noc(C(F)(F)F)n2)cc1` [Compound 1.31, N-(2-fluoroethyl)-2-oxo-2-[4-[5-(trifluoromethyl)-1,2,4-oxadiazol-3-yl]phenyl]acetamide] came in with a melting point of 94 to 100 °C. Besides, the inhibition at 20 ppm in data set [1] is at least 80%. The pest or weed control at 200 ppm in data set [2] is at least 80%. Further, the pest or weed control at 200 ppm in data set [3] is at least 80%. Moreover, the pest or weed control at 200 ppm in the data set with Phakopsora pachyrhizi was at least 80%.
In turn, `O=C(NC1CCCC1(F)F)C(=O)c1ccc(-c2noc(C(F)(F)F)n2)cc1` (stereo not drawn) [Compound 1.34, N-(2,2-difluoro-cyclopentyl)-2-oxo-2-[4-[5-(trifluoromethyl)-1,2,4-oxadiazol-3-yl]phenyl]acetamide] showed a melting point of 64 to 70 °C. Further, the inhibition at 20 ppm in data set [1] was at least 80%. In data set [2], the pest or weed control at 200 ppm was at least 80%. The pest or weed control at 200 ppm in data set [3] was at least 80%. For the same compound, the pest or weed control at 200 ppm in the data set with Phakopsora pachyrhizi was at least 80%.
For `CC(C)(C)OC(=O)NCCNC(=O)C(=O)c1ccc(-c2noc(C(F)(F)F)n2)cc1` [Compound 1.37, tert-butyl N-[2-[[2-oxo-2-[4-[5-(trifluoromethyl)-1,2,4-oxadiazol-3-yl]phenyl]acet-yl]amino]eth-yl]carbamate], the melting point lay in the range of 155 to 156 °C. In addition, in data set [2], the pest or weed control at 200 ppm is at least 80%. The pest or weed control at 200 ppm with Phakopsora pachyrhizi is at least 80%.
Turning to `CCNC(=O)C(=O)c1ccc(-c2noc(C(F)(F)F)n2)cc1` [Compound 1.39, N-ethyl-2-oxo-2-[4-[5-(trifluoromethyl)-1,2,4-oxadiazol-3-yl]phenyl]acetamide], the melting point is 105 to 110 °C. In addition, in data set [1], the inhibition at 20 ppm is at least 80%. Also, the pest or weed control at 200 ppm in data set [2] is at least 80%. The pest or weed control at 200 ppm in data set [3] was at least 80%. Moreover, in the data set with Phakopsora pachyrhizi, the pest or weed control at 200 ppm was at least 80%.
Consider `C#CCNC(=O)C(=O)c1ccc(-c2noc(C(F)(F)F)n2)cc1` [Compound 1.41, 2-oxo-N-prop-2-ynyl-2-[4-[5-(trifluoromethyl)-1,2,4-oxadiazol-3-yl]phenyl]acetamide], for which the melting point is 79 to 84 °C. For the same compound, the inhibition at 20 ppm in data set [1] is at least 80%. Moreover, in data set [2], the pest or weed control at 200 ppm is at least 80%. Besides, in data set [3], the pest or weed control at 200 ppm was at least 80%. Besides, the pest or weed control at 200 ppm with Phakopsora pachyrhizi is at least 80%.
Regarding `O=C(NCC1CC1)C(=O)c1ccc(-c2noc(C(F)(F)F)n2)cc1` [Compound 1.43, N-(cyclopropyl-methyl)-2-oxo-2-[4-[5-(trifluoromethyl)-1,2,4-oxadiazol-3-yl]phenyl]acetamide], the melting point is 86 to 95 °C. Further, in data set [1], the inhibition at 20 ppm is at least 80%. For the same compound, the pest or weed control at 200 ppm in data set [2] is at least 80%. Also, in data set [3], the pest or weed control at 200 ppm is at least 80%. In the data set on Phakopsora pachyrhizi, the pest or weed control at 200 ppm was at least 80%.
